Values after ≈ are worked out from the molar mass of the structure shown.

Series [1] has as its system Bacillus sub-tillis ATCC 6633. Put plainly: antimicrobial test (MIC). The series is classed as cell-based. As to conditions: ATCC6633.
Series [2] has as its system Proteus mirabilis 1287. Put plainly: antimicrobial test (MIC). The series is classed as cell-based.
Series [3] has as its system Serratia marcescens IFO 3046. Put plainly: antimicrobial test (MIC). The series is classed as cell-based. Conditions: IFO3046.
For series [4], the system named is Staphylococcus aureus 209-P. Put plainly: antimicrobial test (MIC). The series is classed as cell-based.
Series [5] concerns Escherichia coli NIHJ. In words: antimicrobial test (MIC). The series is classed as cell-based.
Series [6] has as its system Proteus vulgaris OX-19. In words: antimicrobial test (MIC). Conditions: OX19. The series is classed as cell-based.
For series [7], the system named is Escherichia coli K-12. Put plainly: antimicrobial test (MIC). The series is classed as cell-based. Conditions: K12.
In series [8] the test system is Klebsiella pneumoniae IFO 3512. Put plainly: antimicrobial test (MIC). The series is classed as cell-based. Conditions: IFO3512.
A short description of series [9]: in vivo. Conditions: mouse, oral administration to mice. The source says:
The compounds of this invention have low toxicity.

`CCn1cc(C(=O)O)c(=O)c2sc(Br)cc21` [Compound B, 2-bromo-4,7-dihydro-4-ethyl-7-oxo-thieno(3,2-b)pyridine-6-carboxylic acid]: the MIC was 6.25 µg/mL (≈ 20.7 µM) in series [1]; 3.13 µg/mL (≈ 10.4 µM) in series [2]; 1.56 µg/mL (≈ 5.16 µM) in [3]; > 100 µg/mL in [4]; 1.56 µg/mL (≈ 5.16 µM) in series [5]; 6.25 µg/mL (≈ 20.7 µM) in series [6]. In addition, the MIC in series [7] was 6.25 µg/mL (≈ 20.7 µM); in series [8], 3.13 µg/mL (≈ 10.4 µM).
`CCn1cc(C(=O)O)c(=O)c2sc(Cl)cc21` [Compound A, 2-chloro-4,7-dihydro-4-ethyl-7-oxo-thieno(3,2-b)pyridine-6-carboxylic acid]: the MIC is 12.5 µg/mL (≈ 48.5 µM) in series [1]; 6.25 µg/mL (≈ 24.3 µM) in [2]; 3.13 µg/mL (≈ 12.1 µM) in series [3]; > 100 µg/mL in series [4]; 1.56 µg/mL (≈ 6.05 µM) in series [5]; 12.5 µg/mL (≈ 48.5 µM) in [6]. Moreover, the MIC in series [7] worked out at 12.5 µg/mL (≈ 48.5 µM); in series [8] it was 6.25 µg/mL (≈ 24.3 µM).
Take `CCn1cc(C(=O)O)c(=O)c2sc(I)cc21` [Compound C, 2-iodo-4,7-dihydro-4-ethyl-7-oxo-thieno(3,2-b)pyridine-6-carboxylic acid]: the MIC stood at 1.56 µg/mL (≈ 4.47 µM) in [1]; 0.78 µg/mL (≈ 2.23 µM) in series [2]; 0.78 µg/mL (≈ 2.23 µM) in series [3]; 25 µg/mL (≈ 71.6 µM) in series [4]; 1.56 µg/mL (≈ 4.47 µM) in series [5]; 0.78 µg/mL (≈ 2.23 µM) in series [6]. For the same molecule, the minimum inhibitory concentration (MIC) was 3.13 µg/mL (≈ 8.96 µM) in series [7] and 1.56 µg/mL (≈ 4.47 µM) in series [8]. In addition, the LD50 in series [9] was determined as 2800 mg/kg.
As to `CCn1cc(C(=O)O)c(=O)c2ccc(C)nc21` [Nalidixic acid, reference compound], the MIC in [1] was 3.13 µg/mL (≈ 13.5 µM); in series [2], 3.13 µg/mL (≈ 13.5 µM); in series [3], 1.56 µg/mL (≈ 6.72 µM); in [4] it was > 100 µg/mL; in series [5] it was 1.56 µg/mL (≈ 6.72 µM); in [6], 3.13 µg/mL (≈ 13.5 µM). The MIC turned out to be 6.25 µg/mL (≈ 26.9 µM) in series [7] and 1.56 µg/mL (≈ 6.72 µM) in [8].

What is called MIC is the smallest concentration in the dilution series that meets the test's criterion for growth inhibition. Usually LD50 stands for the dose at which mortality reaches 50%. Read a high LD50 as lower toxicity.

(Values after EP0046990A2, “2-Halogeno-4-alkyl-4,7-dihydro-7-oxo-thieno(3,2-b)-pyridine-6-carboxylic acids, salts thereof at the carboxyl group, pharmaceutical use thereof, and intermediates thereof” (KANEBO, LTD., priority 1980, dated 1982).)
